Measured values as given in US4267176A, “Amino or acylamino-substituted pyrimidinyl cephalosporanic acid derivatives and pharmaceutical compositions thereof” (Fujisawa Pharmaceutical Co., Ltd., priority 1977, dated 1981).
Converted amounts (≈) assume the structure as drawn.

Key:
[1] = test system: Pseudomonas aeruginosa NCTC-10490; test: In vitro antibacterial activity, two-fold agar-plate dilution method (MIC), Pseudomonas aeruginosa; assay type: cell-based; details: NCTC10490, heart infusion agar, 37° C. for 20 hours, approximately 10^6 cells per ml, read-out: MIC (minimal inhibitory concentration)
Method: (§1) In vitro antibacterial activity was determined by the two-fold agar-plate dilution method as described below. One loopful of an overnight culture of each test strain in Trypticase-soy broth (approximately 10^6 […] cells per ml.) was streaked on heart infusion agar (HI-agar) containing graded concentrations of antibiotics, and the minimal inhibitory concentration (MIC) was expressed in […] of μg/ml after incubation at 37° C. for 20 hours.

[2] = test system: Proteus vulgaris IAM 1025; test: In vitro antibacterial activity, two-fold agar-plate dilution method (MIC), Proteus vulgaris; assay type: cell-based; details: IAM1025, heart infusion agar, 37° C. for 20 hours, approximately 10^6 cells per ml, read-out: MIC (minimal inhibitory concentration)
Method: as §1

Structure (SMILES) | MIC [1] | MIC [2]
CCO/N=C(\C(=O)NC1C(=O)N2C(C(=O)O)=C(CSc3nncs3)CSC12)c1nccc(N)n1 (stereo not drawn) [compound 1, 7-[2-(4-Aminopyrimidin-2-yl)-2-ethoxyiminoacetamido]-3-(1,3,4-thiadiazol-2-ylthiomethyl)-3-cephem-4-carboxylic acid (syn isomer)] | < 1.56 µg/mL | < 0.025 µg/mL
C=CCn1nnnc1SCC1=C(C(=O)O)N2C(=O)C(NC(=O)/C(=N\OC)c3nccc(N)n3)C2SC1 (stereo not drawn) [compound 2, 7-[2-(4-Aminopyrimidin-2-yl)-2-methoxyiminoacetamido]-3-[(1-allyl-1H-tetrazol-5-yl)thiomethyl]-3-cephem-4-carboxylic acid (syn isomer)] | 6.25 µg/mL (≈ 11.7 µM) | < 0.025 µg/mL
C=CCO/N=C(\C(=O)NC1C(=O)N2C(C(=O)O)=C(CSc3nncs3)CSC12)c1nccc(N)n1 (stereo not drawn) [compound 3, 7-[2-Allyloxyimino-2-(4-aminopyrimidin-2-yl)acetamido]-3-(1,3,4-thiadiazol-2-ylthiomethyl)-3-cephem-4-carboxylic acid (syn isomer)] | < 1.56 µg/mL | 0.05 µg/mL (≈ 0.0935 µM)
CCCO/N=C(\C(=O)NC1C(=O)N2C(C(=O)O)=C(CSc3nncs3)CSC12)c1nccc(N)n1 (stereo not drawn) [compound 4, 7-[2-(4-Aminopyrimidin-2-yl)-2-propoxyiminoacetamido]-3-(1,3,4-thiadiazol-2-ylthiomethyl)-3-cephem-4-carboxylic acid (syn isomer)] | < 1.56 µg/mL | < 0.025 µg/mL
Nc1cccc(/C(=N/OCC(F)(F)F)C(=O)NC2C(=O)N3C(C(=O)O)=C(CSc4nnnn4CC(=O)O)CSC23)n1 (stereo not drawn) [compound 5, 7-[2-(6-Aminopyridin-2-yl)-2-(2,2,2-trifluoroethoxyimino)acetamido]-3-[(1-carboxymethyl-1H-tetrazol-5-yl)thiomethyl]-3-cephem-4-carboxylic acid (syn isomer)] | < 1.56 µg/mL | 0.025 µg/mL (≈ 0.0405 µM)
CO/N=C(\C(=O)NC1C(=O)N2C(C(=O)O)=C(CSc3nnnn3C)CSC12)c1cccc(N)n1 (stereo not drawn) [compound 6, 7-[2-(6-aminopyridin-2-yl)-2-methoxyiminoacetamido]-3-(1-methyl-1H-tetrazol-5-yl)thiomethyl-3-cephem-4-carboxylic acid (syn isomer)] | ≤ 1.56 µg/mL | ≤ 0.025 µg/mL
CON=C(C(=O)NC1C(=O)N2C(C(=O)O)=CCS[C@H]12)c1cccc(N)n1 (stereo partly shown) [compound 7, 7-[2-(6-aminopyridin-2-yl)-2-methoxyiminoacetamido]-3-cephem-4-carboxylic acid] | 6.25 µg/mL (≈ 16.6 µM) | ≤ 0.025 µg/mL
CO/N=C(\C(=O)NC1C(=O)N2C(C(=O)O)=C(COC(N)=O)CSC12)c1cccc(N)n1 (stereo not drawn) [compound 8, 7-[2-(6-aminopyridin-2-yl)-2-methoxyiminoacetamido]-3-carbamoyloxymethyl-3-cephem-4-carboxylic acid (syn isomer)] | 3.13 µg/mL (≈ 6.95 µM) | 0.05 µg/mL (≈ 0.111 µM)
CO/N=C(\C(=O)NC1C(=O)N2C(C(=O)O)=C(COC(C)=O)CSC12)c1cccc(N)n1 (stereo not drawn) [compound 9, 7-[2-(6-aminopyridin-2-yl)-2-methoxyiminoacetamido]cephalosporanic acid (syn isomer)] | ≤ 1.56 µg/mL | ≤ 0.025 µg/mL
CON=C(C(=O)NC1C(=O)N2C(C(=O)O)=C(CSc3nnnn3C)CS[C@H]12)c1ccnc(N)n1 (stereo partly shown) [compound 10, 7-[2-(2-aminopyrimidin-4-yl)-2-methoxyiminoacetamido]-3-(1-methyl-1H-tetrazol-5-yl)thiomethyl-3-cephem-4-carboxylic acid] | 6.25 µg/mL (≈ 12.3 µM) | 0.2 µg/mL (≈ 0.395 µM)
CO/N=C(\C(=O)NC1C(=O)N2C(C(=O)O)=C(CSc3nnnn3C)CSC12)c1nccc(N)n1 (stereo not drawn) [compound 11, 7-[2-(4-aminopyrimidin-2-yl)-2-methoxyiminoacetamido]-3-(1-methyl-1H-tetrazol-5-ylthiomethyl)-3-cephem-4-carboxylic acid (syn isomer)] | < 1.56 µg/mL | ≤ 0.025 µg/mL
C=CCO/N=C(\C(=O)NC1C(=O)N2C(C(=O)O)=C(CSc3nnnn3C)CSC12)c1cccc(N)n1 (stereo not drawn) [compound 12, 7-[2-allyloxyimino-2-(6-aminopyridin-2-yl)acetamido]-3-(1-methyl-1H-tetrazol-5-ylthiomethyl)-3-cephem-4-carboxylic acid (syn isomer)] | ≤ 1.56 µg/mL | 0.05 µg/mL (≈ 0.0941 µM)
C#CCO/N=C(\C(=O)NC1C(=O)N2C(C(=O)O)=C(CSc3nnnn3C)CSC12)c1cccc(N)n1 (stereo not drawn) [compound 13, 7-[2-(6-aminopyridin-2-yl)-2-propargyloxyiminoacetamido]-3-(1-methyl-1H-tetrazol-5-ylthiomethyl)-3-cephem-4-carboxylic acid (syn isomer)] | ≤ 1.56 µg/mL | 0.05 µg/mL (≈ 0.0944 µM)
CCO/N=C(\C(=O)NC1C(=O)N2C(C(=O)O)=CC(C)SC12)c1cccc(N)n1 (stereo not drawn) [compound 14, 7-[2-(6-aminopyridin-2-yl)-2-ethoxyiminoacetamido]-2-methyl-3-cephem-4-carboxylic acid (syn isomer)] | < 1.56 µg/mL | 0.05 µg/mL (≈ 0.123 µM)
